Measurements: patent US6875748B2, “Compositions and methods for in vivo delivery of polynucleotide-based therapeutics” (Vical Incorporated, priority 2000, dated 2005)
Read-outs that look alike come from different tables or passages of the source.

Key:
mouse quadriceps muscle [1] = experiment: Luciferase expression in mouse quadriceps muscle after i.m. injection of plasmid VR1255 with auxiliary agents; conditions: for ability to enhance in vivo expression relative to identical composition without the compound: mouse; for luciferase expression versus 150 mM sodium phosphate alone: day 7
mouse quadriceps muscle [2] = experiment: Luciferase expression in mouse quadriceps muscle 7 days after i.m. injection of plasmid VR1223 in salt solutions; format: in vivo; parameters: lux: unit: ng/muscle; conditions: for ng Lux/Muscle: 50 μg VR1223 in 50 μl; for ng Lux/Muscle / Fold Saline: salts at 150 mM, day 7; for luciferase expression compared with saline (words): 150 mM solutions; for lux: 7-day luciferase expression, VR1223; for Fold Saline: relative to saline
pH of the salt solutions = format: physicochemical
[3] = Osmolarity of the salt solutions; format: physicochemical; conditions: 150 mM unless otherwise indicated
[4] = 150 mM unless otherwise indicated

C[C@H](CCC(=O)NCCC[N+](C)(C)CCCS(=O)(=O)[O-])[C@H]1CC[C@H]2[C@@H]3[C@H](O)C[C@@H]4C[C@H](O)CC[C@]4(C)[C@H]3C[C@H](O)[C@]12C [CHAPS, 3[(3-Cholamidopropyl)dimethylammonio]-1-propanesulfonate]
ability to enhance in vivo expression relative to identical composition without the compound (mouse quadriceps muscle [1]): no ability to enhance

[Ca+2].[Cl-].[Cl-] [Calcium Chloride]
ng Lux/Muscle (mouse quadriceps muscle [2]): 0.3 ng/Muscle | luciferase expression compared with saline (words) (mouse quadriceps muscle [2]; VR1223, day 7): no ability to enhance | lux (mouse quadriceps muscle [2]; Table III-A): 0.3 | lux (mouse quadriceps muscle [2]; Table III-B): 0.3 | Fold Saline (mouse quadriceps muscle [2]): <0.1 Fold | pH (pH of the salt solutions; [4]): 5.5 | Osm [3]: 362 mmol/kg

C[S+](C)[O-] [DMSO, dimethylsulfoxide]
luciferase expression versus 150 mM sodium phosphate alone (mouse quadriceps muscle [1]): significantly increased expression

O=C(O)CN(CCN(CC(=O)O)CC(=O)O)CC(=O)O [EDTA, ethylenediamine tetraacetic acid]
luciferase expression versus 150 mM sodium phosphate alone (mouse quadriceps muscle [1]): significantly increased expression

O=C(O)CN(CCOCCOCCN(CC(=O)O)CC(=O)O)CC(=O)O [EGTA]
ability to enhance in vivo expression relative to identical composition without the compound (mouse quadriceps muscle [1]): no ability to enhance

[Cl][Fe][Cl] [Ferrous Chloride]
ng Lux/Muscle (mouse quadriceps muscle [2]): 0.0 ng/Muscle | luciferase expression compared with saline (words) (mouse quadriceps muscle [2]; VR1223, day 7): no ability to enhance | lux (mouse quadriceps muscle [2]; Table III-A): 0.0 | lux (mouse quadriceps muscle [2]; Table III-B): 0.0 | Fold Saline (mouse quadriceps muscle [2]): <0.1 Fold | pH (pH of the salt solutions; [4]): 5.0 | Osm [3]: 362 mmol/kg

CCCCCCC(=O)N(C)C[C@H](O)[C@@H](O)[C@H](O)[C@H](O)CO [MEGA 7, heptanoyl-N-methyl-glucamide]
ability to enhance in vivo expression relative to identical composition without the compound (mouse quadriceps muscle [1]): no ability to enhance

CCCCCCCC(=O)N(C)C[C@H](O)[C@@H](O)[C@H](O)[C@H](O)CO [MEGA 8, octanyol-N-methyl-glucamide]
ability to enhance in vivo expression relative to identical composition without the compound (mouse quadriceps muscle [1]): no ability to enhance

CCCCCCCCC(=O)N(C)C[C@H](O)[C@@H](O)[C@H](O)[C@H](O)CO [MEGA 9, nonanoyl-N-methyl-glucamide]
ability to enhance in vivo expression relative to identical composition without the compound (mouse quadriceps muscle [1]): no ability to enhance

[Cl-].[Cl-].[Mg+2] [Magnesium Chloride]
ng Lux/Muscle (mouse quadriceps muscle [2]): 1 ng/Muscle | luciferase expression compared with saline (words) (mouse quadriceps muscle [2]; VR1223, day 7): no ability to enhance | lux (mouse quadriceps muscle [2]; Table III-A): 1 | lux (mouse quadriceps muscle [2]; Table III-B): 1 | Fold Saline (mouse quadriceps muscle [2]): <0.1 Fold | pH (pH of the salt solutions; [4]): 5.5 | Osm [3]: 360 mmol/kg

[Cl-].[K+] [Potassium Chloride]
ng Lux/Muscle (mouse quadriceps muscle [2]): 124 ng/Muscle | luciferase expression compared with saline (words) (mouse quadriceps muscle [2]; VR1223, day 7): no ability to enhance | lux (mouse quadriceps muscle [2]; Table III-A): 124 | lux (mouse quadriceps muscle [2]; Table III-B): 124 | Fold Saline (mouse quadriceps muscle [2]): 1.0 Fold | pH (pH of the salt solutions; [4]): 5.5 | Osm [3]: 280 mmol/kg

O=P(O)(O)O [Potassium Phosphate]
ng Lux/Muscle (mouse quadriceps muscle [2]): 449 ng/Muscle | luciferase expression compared with saline (words) (mouse quadriceps muscle [2]; VR1223, day 7): stimulated expression just as well as solution of 150 mM sodium phosphate | lux (mouse quadriceps muscle [2]; Table III-A): 449 | lux (mouse quadriceps muscle [2]; Table III-B): 449 | Fold Saline (mouse quadriceps muscle [2]): 3.8 Fold | pH (pH of the salt solutions; [4]): 7.5 | Osm [3]: 323 mmol/kg

CCCCCCCCCCCCOS(=O)(=O)[O-].[Na+] [SDS, sodium dodecyl sulfate]
luciferase expression versus 150 mM sodium phosphate alone (mouse quadriceps muscle [1]): significantly increased expression

CC(=O)[O-].[Na+] [Sodium Acetate]
ng Lux/Muscle (mouse quadriceps muscle [2]): 498 ng/Muscle | luciferase expression compared with saline (words) (mouse quadriceps muscle [2]; VR1223, day 7): increased luciferase expression compared with saline | lux (mouse quadriceps muscle [2]; Table III-A): 498 | lux (mouse quadriceps muscle [2]; Table III-B): 498 | Fold Saline (mouse quadriceps muscle [2]): 4.1 Fold | pH (pH of the salt solutions; [4]): 6.5 | Osm [3]: 271 mmol/kg

O=C([O-])O.[Na+] [Sodium Bicarbonate]
ng Lux/Muscle (mouse quadriceps muscle [2]): 330 ng/Muscle | luciferase expression compared with saline (words) (mouse quadriceps muscle [2]; VR1223, day 7): increased luciferase expression compared with saline | lux (mouse quadriceps muscle [2]; Table III-A): 330 | lux (mouse quadriceps muscle [2]; Table III-B): 330 | luciferase expression, fold over saline (mouse quadriceps muscle [2]; VR1223, day 7): 2.8 fold | Fold Saline (mouse quadriceps muscle [2]): 2.8 Fold | pH (pH of the salt solutions): 9.0 | pH (pH of the salt solutions; [4]): 9.0 | Osm [3]: 727 mmol/kg

OC[C@H]1O[C@H](OC[C@H]2O[C@H](OC[C@H]3O[C@H](O[C@]4(CO)O[C@H](CO)[C@@H](O)[C@@H]4O)[C@H](O)[C@@H](O)[C@@H]3O)[C@H](O)[C@@H](O)[C@H]2O)[C@H](O)[C@@H](O)[C@H]1O [Stachyose, stachyose]
luciferase expression versus 150 mM sodium phosphate alone (mouse quadriceps muscle [1]): significantly increased expression

CCCCCCCCCCCCCCCC[N+](C)(C)CCCS(=O)(=O)[O-] [Zwittergent, n-hexadecyl-N,N-dimethyl-3-ammonio-1-propanesulfonate]
ability to enhance in vivo expression relative to identical composition without the compound (mouse quadriceps muscle [1]): no ability to enhance

OCc1ccccc1 [benzyl alcohol]
ability to enhance in vivo expression relative to identical composition without the compound (mouse quadriceps muscle [1]): no ability to enhance

CCCCCCCCCCCCO[C@@H]1O[C@H](CO)[C@@H](O[C@H]2O[C@H](CO)[C@@H](O)[C@H](O)[C@H]2O)[C@H](O)[C@H]1O [n-Dodecylmaltoside, n-dodecylmaltoside]
ability to enhance in vivo expression relative to identical composition without the compound (mouse quadriceps muscle [1]): no ability to enhance

CCCCCCCCO[C@@H]1O[C@H](CO)[C@@H](O)[C@H](O)[C@H]1O [n-octylglucoside]
ability to enhance in vivo expression relative to identical composition without the compound (mouse quadriceps muscle [1]): no ability to enhance

(octyl phenoxy) polyethoxyethanol [IGEPAL CA 630®]
luciferase expression versus 150 mM sodium phosphate alone (mouse quadriceps muscle [1]): significantly increased expression

Actin
ability to enhance in vivo expression relative to identical composition without the compound (mouse quadriceps muscle [1]): no ability to enhance

Macrogol-50 stearate [MYRJ 53]
ability to enhance in vivo expression relative to identical composition without the compound (mouse quadriceps muscle [1]): no ability to enhance

PEG-40 Stearate [MYRJ 52]
ability to enhance in vivo expression relative to identical composition without the compound (mouse quadriceps muscle [1]): no ability to enhance

octyl phenol ethylene oxide condensate with about 7-8 ethylene oxide units [Triton X-114]
luciferase expression versus 150 mM sodium phosphate alone (mouse quadriceps muscle [1]): significantly increased expression

octyl phenol ethylene oxide condensate with about 9 ethylene oxide units [Nonidet P40]
luciferase expression versus 150 mM sodium phosphate alone (mouse quadriceps muscle [1]): significantly increased expression

polyoxyethylene 10 cetyl ether
ability to enhance in vivo expression relative to identical composition without the compound (mouse quadriceps muscle [1]): no ability to enhance

polyoxyethylene 20 stearyl ether
ability to enhance in vivo expression relative to identical composition without the compound (mouse quadriceps muscle [1]): no ability to enhance

polyoxyethylene sorbitan monolaurate [Tween 20]
luciferase expression versus 150 mM sodium phosphate alone (mouse quadriceps muscle [1]): significantly increased expression

polyoxyethylene sorbitan monooleate [Tween 80]
luciferase expression versus 150 mM sodium phosphate alone (mouse quadriceps muscle [1]): significantly increased expression

polysorbate 40 [Tween-40®]
ability to enhance in vivo expression relative to identical composition without the compound (mouse quadriceps muscle [1]): no ability to enhance

sorbitan monolaurate [SPAN 20]
ability to enhance in vivo expression relative to identical composition without the compound (mouse quadriceps muscle [1]): no ability to enhance
